The text below walks through data of patent publication US12030886B2, “Form of ponatinib” (MACFARLAN SMITH LIMITED, priority 2018, dated 2024).

This data set is described as follows: Solid-form stability under stressed conditions (temperature/relative humidity). In kind it is physicochemical. As to conditions: for at least four weeks. The protocol:
Form Z of acetic acid solvated hydrate of ponatinib hydrochloride is stable under stressed conditions of about 40° C./75% RH and about 25° C./97% RH for at least four weeks.

As for `Cc1ccc(C(=O)Nc2ccc(CN3CCN(C)CC3)c(C(F)(F)F)c2)cc1C#Cc1cnc2cccnn12` [3-(imidazo[1,2-b]pyridazin-3-ylethynyl)-4-methyl-N-{4-[(4-methylpiperazin-1-yl)methyl]-3-(trifluoromethyl)phenyl}benzamide], the “stability under stressed conditions” value is reported as “stable” (about 25° C./97% RH) and “stable” (about 40° C./75% RH).
